Test results as given in patent US11040963B2 (priority 2017, dated 2021).

How the values were obtained:
[1] = biological target: HA H1 A/California/07/09 (Influenza A virus (A/California/07/2009(H1N1)), UniProt C3W5X2); test: biochemical; settings: Competition binding (AlphaLISA), pIC50 H1 A/California/07/09
[2] = biological target: HA H1 A/New Caledonia/20/99 (Influenza A virus (A/New Caledonia/20/1999(H1N1)), UniProt Q6WG00); test: biochemical; settings: Competition binding (AlphaLISA), pIC50 H1 A/New Caledonia/20/99
[3] = biological target: HA H5 A/Vietnam/1203/04 (Influenza A virus (A/Vietnam/1203/2004(H5N1)), UniProt Q5EP31); test: biochemical; settings: Competition binding (AlphaLISA), pIC50 H5 A/Vietnam/1203/04
H1N1 A/California/07/09 = test: microbe, parasite or virus in culture; type: cell-based, influenza A virus; settings: Influenza A virus, H1N1, MDCK, 96 h, read-out: Virus neutralization assay (VNA), pEC50 H1N1 A/California/07/09 (converted)
[4] = test system: H1N1 A/New Caledonia/20/99; test: microbe, parasite or virus in culture; type: cell-based, influenza A virus; settings: Influenza A virus, H1N1, MDCK, 96 h, read-out: Virus neutralization assay (VNA), pEC50 H1N1 A/New Caledonia/20/99 (converted)
H5N1 A/Vietnam/1203/04 = test: microbe, parasite or virus in culture; type: cell-based, influenza A virus; settings: Influenza A virus, H5N1, MDCK, 96 h, read-out: Virus neutralization assay (VNA), pEC50 H5N1 A/Vietnam/1203/04, MDCK cells, 96 h, CPE by ATPlite (converted); average of repeats
in vitro = settings: dog, Cytotoxicity (pCC50) MDCK

Compound | IC50 [1] [nM] | IC50 [2] [nM] | IC50 [3] [nM] | EC50 (H1N1 A/California/07/09) [nM] | EC50 [4] [nM] | EC50 (H5N1 A/Vietnam/1203/04) [nM] | CC50 (in vitro) [nM]
COC(=O)C(c1ccccc1)N1CCN(C(=O)c2cccc(-c3nc4cc(OC5CC5)ccc4o3)c2)CC1 (centres unmarked) [Example 1, Methyl 2-(4-(3-(5-cyclopropoxybenzo[d]oxazol-2-yl)benzoyl)piperazin-1-yl)-2-phenylacetate] | 1.26 | 0.631 | 63.1 | 2.51 | 2.51 | 200 | > 50100
CC(=O)Nc1ccc2oc(-c3ccnc(C(=O)N4CCN([C@H](c5ccccc5)c5n[nH]c(C)n5)CC4)c3)nc2c1 [Example 2] | 7.94 | 5.01 | 158 | 10 | 2.51 | 1000 | > 50100
COc1nnc([C@@H](c2ccccc2)N2CCN(C(=O)c3cc(-c4nc5cc(OC(F)(F)F)ccc5o4)ccn3)CC2)o1 [Example 4] | 12.6 | 7.94 | 100 | 100 | 79.4 | 1260 | > 50100
CC(=O)Nc1ccc2oc(-c3ccnc(C(=O)N4CCN(C(c5ccccc5)c5n[nH]c(C)n5)CC4)c3)nc2c1 (centres unmarked) [Example 5] | 25.1 | 15.8 | 501 | 15.8 | 6.31 | 1260 | > 50100
CC(=O)Nc1ccc2oc(-c3cccc(C(=O)N4CCN(C(c5ccccc5)c5n[nH]c(C)n5)CC4)c3)nc2c1 (centres unmarked) [Example 6] | 20 | 10 | 501 | 20 | 6.31 | 12600 | > 50100
COC(=O)C(c1ccccc1)N1CCN(C(=O)c2cccc(-c3nc4cc(NC(C)=O)ccc4o3)c2)CC1 (centres unmarked) [Example 7] | 6.31 | 3.16 | 158 | 25.1 | 25.1 | 1580 | 31600
COC(=O)[C@@H](c1ccccc1)N1CCN(C(=O)c2cccc(-c3nc4cc(OC)ccc4o3)c2)CC1 [Example 8] | 6.31 | 3.98 | 200 | 39.8 | 31.6 | 1260 | > 50100
CNc1ccc2oc(-c3cccc(C(=O)N4CCN(C(C(=O)OC)c5ccccc5)CC4)c3)nc2c1 (centres unmarked) [Example 9] | 6.31 | 3.98 | 251 | 63.1 | 39.8 | 1580 | 10000
COC(=O)C(c1ccccc1)N1CCN(C(=O)c2cccc(-c3nc4cc(N)ccc4o3)c2)CC1 (centres unmarked) [Example 10] | 25.1 | 15.8 | 794 | 79.4 | 50.1 | 2510 | 25100
COC(=O)C(c1ccccc1)N1CCN(C(=O)c2cccc(-c3nc4cc(N(C)C)ccc4o3)c2)CC1 (centres unmarked) [Example 11] | 7.94 | 6.31 | 316 | 79.4 | 50.1 | 1260 | 3980
Cc1nnc([C@@H](c2ccccc2)N2CCN(C(=O)c3cc(-c4nc5cc(OC(F)(F)F)ccc5o4)ccn3)CC2)o1 [Example 12] | 6.31 | 7.94 | 158 | 39.8 | 39.8 | 1260 | 15800
COC(=O)C(c1ccccc1)N1CCN(C(=O)c2cccc(-c3nc4cc(OC)ccc4o3)c2)CC1 (centres unmarked) [Example 13] | 7.94 | 6.31 | 501 | 79.4 | 50.1 | 3160 | 50100
COC(=O)C(c1ccccc1)N1CCN(C(=O)c2cc(-c3nc4ccc(OC)cc4s3)ccn2)CC1 (centres unmarked) [Example 14] | 20 | 10 | 126 | 126 | 63.1 | 1000 | 15800
CC(=O)Nc1ccc2oc(-c3ccnc(C(=O)N4CCN([C@H](c5ccccc5)c5nnc(C)o5)CC4)c3)nc2c1 [Example 15] | 3.16 | 6.31 | 158 | 158 | 39.8 | 7940 | > 50100
COC(=O)C(c1ccccc1)N1CCN(C(=O)c2cc(-c3nc4cc(C(F)(F)F)ccc4o3)ccn2)CC1 (centres unmarked) [Example 16] | 15.8 | 15.8 | 398 | 79.4 | 79.4 | 3160 | 
Cc1nnc([C@@H](c2ccccc2)N2CCN(C(=O)c3cc(-c4nc5cc(C(F)(F)F)ccc5o4)ccn3)CC2)o1 [Example 17] | 15.8 | 31.6 | 631 | 126 | 200 | 3980 | 7940
Cc1coc(C(c2ccccc2)N2CCN(C(=O)c3cc(-c4nc5cc(OC(F)(F)F)ccc5o4)ccn3)CC2)n1 (centres unmarked) [Example 18] | 39.8 | 20 | 398 | 200 | 79.4 | 20000 | > 50100
Cc1cnc(C(c2ccccc2)N2CCN(C(=O)c3cc(-c4nc5cc(OC(F)(F)F)ccc5o4)ccn3)CC2)o1 (centres unmarked) [Example 20] | 12.6 | 20 | 501 | 79.4 | 100 | 7940 | 25100
Cc1nnc(C(c2ccccc2)N2CCN(C(=O)c3cc(-c4nc5ccccc5s4)ccc3F)CC2)o1 (centres unmarked) [Example 48] | 251 | 200 | 12600 | 631 | 316 | > 50100 | 
Cc1nnc(C(c2ccccc2)N2CCN(C(=O)c3cc(-c4nc5ccccc5o4)ccc3F)CC2)o1 (centres unmarked) [Example 52] | 200 | 200 | 20000 | 631 | 398 | > 50100 | 
Cc1nnc([C@@H](c2ccccc2)N2CCN(C(=O)[C@H]3CCCN(c4nc5cc(C(F)(F)F)ccc5o4)C3)CC2)o1 [Example 96] | 200 | 316 | 15800 | 794 | 1000 | 50100 | 
Cc1nnc(C(c2ccccc2)N2CCN(C(=O)c3ccnc(-c4nc5cc(C(F)(F)F)ccc5o4)c3)CC2)o1 (centres unmarked) [Example 101] | 631 | 794 | 39800 | 2000 | 1000 | > 50100 | 
Cc1nnc(C(c2ccccc2)N2CCN(C(=O)[C@H]3CCCN(c4nc5cc(C(F)(F)F)ccc5o4)C3)CC2)o1 (some centres unmarked) [Example 110] | 398 | 794 | 50100 | 1260 | 1260 | > 50100 | 
